Assay [1] concerns HEK293. The assay can be described thus: Cytotoxicity against HEK293 cells after 24 hrs by MTT assay. It is filed as cell-based. As to conditions: Homo sapiens, HEK293, 24 h. (Tetrazolium assays rely on reduction of a dye to a coloured formazan, in cell work by metabolically active cells.)
Assay [2] relates to MCF7. The assay can be described thus: Decrease in 5alpha-DHP level in human MCF7 cells at 1 to 10 uM after 24 hrs by ELISA. It is filed as functional, cell-based. In general terms: An ELISA detects its analyte on a solid surface through an enzyme-linked reagent.
For assay [3], the system named is MCF7. Put plainly: Cytotoxicity against human MCF7 cells after 24 hrs by MTT assay. As to conditions: MCF7, 24 h. It is filed as functional, cell-based.
Assay [4] concerns MCF7. Put plainly: Decrease in SRD5A1 level in human MCF7 cells at 1 to 10 uM after 24 hrs by ELISA. It is filed as functional, cell-based.
Assay [5] relates to MCF7. The assay can be described thus: Decrease in progesterone level in human MCF7 cells at 1 to 10 uM after 24 hrs by ELISA. Type of assay: functional, cell-based.
Assay [6] deals with MDA-MB-231. Put plainly: Cytotoxicity against human MDA-MB-231 cells after 24 hrs by MTT assay. Type of assay: functional, cell-based. As to conditions: MDA-MB-231, 24 h.
Assay [7] deals with MDA-MB-231. Put plainly: Anti-migratory activity against human MDA-MB-231 cells assessed as reduction in cell migration towards wound area at 0.5 to 10 uM after 24 hrs by phase contrast microscopic analysis. Type of assay: functional, cell-based.
Assay [8] concerns MDA-MB-231. Put plainly: Induction of mitochondrial membrane potential loss in human MDA-MB-231 cells after 24 hrs by JC1 staining based flow cytometric analysis. Type of assay: functional, cell-based. A general note: A flow cytometer gives signals particle by particle.
Assay [9] deals with MCF7. The assay can be described thus: Induction of mitochondrial membrane potential loss in human MCF7 cells after 24 hrs by JC1 staining based flow cytometric analysis. It is filed as functional, cell-based.
For assay [10], the system named is MDA-MB-231. Put plainly: Cell cycle arrest in human MDA-MB-231 cells assessed as decrease in S phase population after 24 hrs by flow cytometric analysis. Type of assay: functional, cell-based.
Assay [11] concerns MCF7. The assay can be described thus: Induction of mitochondrial membrane potential loss in human MCF7 cells assessed as ratio of green to red fluorescence at 1 uM after 24 hrs by JC1 staining based flow cytometric analysis (reference value: 1.41). Type of assay: functional.
Assay [12] has as its system MDA-MB-231. Put plainly: Induction of apoptosis in human MDA-MB-231 cells after 24 hrs by Annexin-V-FITC/propidium iodide staining based flow cytometric analysis. It is filed as functional, cell-based.
The test system of assay [13] is MDA-MB-231. Put plainly: Induction of mitochondrial membrane potential loss in human MDA-MB-231 cells assessed as ratio of green to red fluorescence at 5 uM after 24 hrs by JC1 staining based flow cytometric analysis (reference value: 4.55). It is filed as functional.
The subject of assay [14] is MDA-MB-231. Put plainly: Induction of mitochondrial membrane potential loss in human MDA-MB-231 cells assessed as ratio of green to red fluorescence at 1 uM after 24 hrs by JC1 staining based flow cytometric analysis (reference value: 4.55). It is filed as functional.
Assay [15] concerns MCF7. Put plainly: Anti-invasive activity against human MCF7 cells assessed as inhibition of TGF-beta induced cell invasion at 0.5 to 1 uM after 24 hrs by crystal violet staining based transwell assay. It is filed as functional.
Assay [16] concerns MDA-MB-231. The assay can be described thus: Cell cycle arrest in human MDA-MB-231 cells assessed as increase in sub-G1 population after 24 hrs by flow cytometric analysis. It is filed as functional, cell-based.
Assay [17] deals with MCF7. The assay can be described thus: Decrease in 5alpha-DHP level in human MCF7 cells after 24 hrs by ELISA. Type of assay: functional, cell-based.
Assay [18] concerns MCF7. Put plainly: Induction of mitochondrial membrane potential loss in human MCF7 cells assessed as ratio of green to red fluorescence at 0.5 uM after 24 hrs by JC1 staining based flow cytometric analysis (reference value: 1.41). It is filed as functional.
The subject of assay [19] is MCF7. Put plainly: Cell cycle arrest in human MCF7 cells assessed as increase in sub-G1 population at 0.5 to 10 uM after 24 hrs by propidium iodide staining based flow cytometric analysis. It is filed as functional.
The subject of assay [20] is MCF7. The assay can be described thus: Induction of apoptosis in human MCF7 cells after 24 hrs by Annexin-V-FITC/propidium iodide staining based flow cytometric analysis. Type of assay: functional, cell-based.
For assay [21], the system named is MCF7. The assay can be described thus: Cell cycle arrest in human MCF7 cells assessed as increase in G2/M population at 0.5 to 10 uM after 24 hrs by propidium iodide staining based flow cytometric analysis. Type of assay: functional.
Assay [22] has as its system MDA-MB-231. Put plainly: Induction of mitochondrial membrane potential loss in human MDA-MB-231 cells assessed as ratio of green to red fluorescence at 0.5 uM after 24 hrs by JC1 staining based flow cytometric analysis (reference value: 4.55). It is filed as functional.
Assay [23] relates to MDA-MB-231. The assay can be described thus: Anti-migratory activity against human MDA-MB-231 cells assessed as reduction in cell migration towards wound area at 50 uM after 24 hrs by phase contrast microscopic analysis relative to control. Type of assay: functional. More on the design: scale not given: the % may be the effect or the level left.
The test system of assay [24] is MCF7. The assay can be described thus: Induction of mitochondrial membrane potential loss in human MCF7 cells assessed as ratio of green to red fluorescence at 5 uM after 24 hrs by JC1 staining based flow cytometric analysis (reference value: 1.41). Type of assay: functional.
Assay [25] deals with MDA-MB-231. Put plainly: Cell cycle arrest in human MDA-MB-231 cells assessed as increase in G2/M-phase population after 24 hrs by flow cytometric analysis. It is filed as functional, cell-based.
In assay [26] the test system is MDA-MB-231. Put plainly: Anti-migratory activity against human MDA-MB-231 cells assessed as reduction in cell migration towards wound area at 0.1 uM after 24 hrs by phase contrast microscopic analysis. It is filed as functional, cell-based.

By pIC50 is commonly meant −log10 of the IC50, conventionally taken in molar units.

pIC50: −log10 of the molar value. The source made the active and inactive calls. The rule behind the calls is not given here. Bounds are passed on as bounds.

As to `CC(C)(C)NC(=O)[C@H]1CC[C@H]2[C@@H]3CC[C@H]4NC(=O)C=C[C@]4(C)[C@H]3CC[C@]12C` [FINASTERIDE], the pIC50 in assay [1] was under 4.30; in assay [3], 4.36; in [6], under 4.30. Besides, the result in [2] and in assay [4] was inactive. In addition, the outcome in assay [5] was Active.

In the case of `C1=C2c3ccccc3CC[C@H]2N2CCC[C@H]2C1`, the pIC50 was under 4.30 in [1], 4.46 in assay [3] and under 4.30 in [6].

With `COc1ccc2c(c1)C1=CC[C@@H]3C[C@@H](OCc4ccccc4)CN3[C@@H]1CC2`, the pIC50 is under 4.30 in assay [1], under 4.30 in [3] and 4.37 in [6].

Regarding `C[C@]12CC=C3c4ccccc4CC[C@@H]3N1CCC2`, the outcome in assay [7], in assay [4], in assay [5], in assay [19] and in [21] was Active. The Activity entry in assay [8], in assay [9], in assay [10], in assay [12], in [16] and in assay [17] was “Dose-dependent effect” in each case. For the same compound, the Activity result in assay [20] was “Dose-dependent effect”; in assay [23], 100%; in assay [25], “Dose-dependent effect”. In addition, the pIC50 is under 4.30 in [1], 6.00 in assay [3] and 5.85 in assay [6]. In addition, the Ratio turned out to be 4.45 in [11]; 9.045 in assay [13]; 9.35 in assay [14]; 2.51 in [18]; 7.8 in assay [22]; 8.29 in assay [24]. Further, in [15], the inhibition entry was “Active”. In addition, in assay [26], the result was inactive.

As to `C[C@]12CC=C3c4ccccc4CC[C@H]3N1CCC2`, the pIC50 was under 4.30 in assay [1], 5.37 in [3] and 4.47 in assay [6].

For the compound `C1=C2c3ccccc3CC[C@H]2N2C[C@H](OCc3ccccc3)C[C@H]2C1`, the pIC50 in [1] was under 4.30; in [3] it was 5.27; in assay [6], 4.45.

For `C1=C2c3ccccc3CC[C@@H]2N2CCC[C@H]2C1`, the pIC50 was under 4.30 in assay [1], under 4.30 in assay [3] and 4.33 in assay [6].

For `COc1ccc2c(c1)C1=CC[C@@H]3C[C@@H](OCc4ccccc4)CN3[C@H]1CC2`, the figures for the pIC50 in assay [1], in assay [3] and in [6] were under 4.30, under 4.30 and 5.01, respectively.

Turning to `C1=C2c3ccccc3CC[C@@H]2N2C[C@H](OCc3ccccc3)C[C@H]2C1`, the results for the pIC50 in [1], in [3] and in [6] were under 4.30, 4.39 and 4.34, respectively.

These data come from ChEMBL document CHEMBL4052754, “Targeting progesterone metabolism in breast cancer with l-proline derived new 14-azasteroids” (Bioorg Med Chem, 2017).
